# Patent US12691107B2, “Methods for the treatment and prevention of lung infections caused by gram-positive bacteria, fungus, or virus by administration of tafenoquine” (priority 2020, dated 2026)
# Read-outs that look alike come from different tables or passages of the source.
# Experiments:
# Format in all cases: cell-based
# Candida auris = assay: Antifungal MIC (RPMI-1640 microdilution); settings: Candidozyma auris
# Cryptococcus neoformans = assay: Antifungal MIC (RPMI-1640 microdilution); settings: Cryptococcus neoformans
# Candida albicans = assay: Antifungal MIC (RPMI-1640 microdilution)
# Candida guilliermondii = assay: Antifungal MIC (RPMI-1640 microdilution); settings: Meyerozyma guilliermondii
# Scedosporium sp. = assay: Antifungal MIC (RPMI-1640 microdilution); settings: Scedosporium
# Candida parapsilosis = assay: Antifungal MIC (RPMI-1640 microdilution); settings: for MIC50: Lodderomyces parapsilosis
# C. krusei = assay: Antifungal MIC (RPMI-1640 microdilution); settings: Pichia kudriavzevii, ATCC6258, read-out: MIC 50% inhibition; isolate ATCC 6258
# Emergomyces sp. = assay: Antifungal MIC (RPMI-1640 microdilution)
# P. variotii = assay: Antifungal MIC (RPMI-1640 microdilution); settings: Paecilomyces variotii, isolate MYA-3630
# Histoplasma capsulatum = assay: microbe, parasite or virus in culture
# Candida glabrata = assay: Antifungal MIC (RPMI-1640 microdilution); settings: Nakaseomyces glabratus
# Blastomyces dermatitidis = assay: Antifungal MIC (RPMI-1640 microdilution)
# Coccidioides sp. = assay: microbe, parasite or virus in culture
# Saksenaea sp. = assay: Antifungal MIC (RPMI-1640 microdilution)
# Sporothrix sp. = assay: Antifungal MIC (RPMI-1640 microdilution)
# Rhizopus arrhizus = assay: Antifungal MIC (RPMI-1640 microdilution)
# Apophysomyces sp. = assay: Antifungal MIC (RPMI-1640 microdilution)
# Streptococcus pneumoniae = assay: Antibacterial MIC (broth microdilution); settings: Streptococcus pneumoniae, CA-MHB with 3% LHB
# Staphylococcus aureus = assay: Antibacterial MIC (broth microdilution)
smiles,measurement,setting,value
OC(Cn1cncn1)(Cn1cncn1)c1ccc(F)cc1F [Fluconazole],MIC50,"Candida auris; read-out: MIC 50% inhibition, isolate DI17-46",> 64 mg/L
same,MIC50,"Candida auris; read-out: MIC 50% inhibition, isolate DI17-47",> 64 mg/L
same,MIC50,"Candida auris; read-out: MIC 50% inhibition, isolate DI17-48",2 mg/L
same,MIC50,"Cryptococcus neoformans; read-out: MIC 50% inhibition, isolate CN3",64 mg/L
same,MIC50,"Cryptococcus neoformans; read-out: MIC 50% inhibition, isolate H99",16 mg/L
same,MIC50,"Cryptococcus neoformans; read-out: MIC 50% inhibition, isolate USC1597",4 mg/L
same,MIC50,"Candida albicans; ATCC90028, read-out: MIC 50% inhibition, isolate ATCC 90028",0.25 mg/L
same,MIC50,"Candida albicans; read-out: MIC 50% inhibition, isolate CA3",> 64 mg/L
same,MIC50,"Candida albicans; read-out: MIC 50% inhibition, isolate SC5314",0.5 mg/L
same,MIC50,"Candida guilliermondii; read-out: MIC 50% inhibition, isolate Cgui1",1 mg/L
same,MIC50,"Candida guilliermondii; read-out: MIC 50% inhibition, isolate Cgui2",2 mg/L
same,MIC50,"Candida guilliermondii; read-out: MIC 50% inhibition, isolate Cgui3",2 mg/L
same,MIC50,"Scedosporium sp.; read-out: MIC 50% inhibition, isolate Scedo1",0.125 mg/L
same,MIC50,"Scedosporium sp.; read-out: MIC 50% inhibition, isolate 00-180",0.125 mg/L
same,MIC50,"Scedosporium sp.; read-out: MIC 50% inhibition, isolate LPI",4 mg/L
same,MIC50,"Candida parapsilosis; ATCC22019, read-out: MIC 50% inhibition, isolate ATCC 22019",1 mg/L
same,MIC50,"Candida parapsilosis; read-out: MIC 50% inhibition, isolate CP1",0.5 mg/L
same,MIC 50% inhibition,Candida parapsilosis; isolate CP2,0.5 mg/L
same,MIC 50% inhibition,Candida parapsilosis; isolate CP3,0.5 mg/L
same,MIC50,C. krusei,32 mg/L
same,MIC50,"Emergomyces sp.; read-out: MIC 50% inhibition, isolate Emerg2",≤ 0.03 mg/L
same,MIC50,"Emergomyces sp.; read-out: MIC 50% inhibition, isolate Emerg3",≤ 0.03 mg/L
same,MIC50,P. variotii; read-out: MIC 50% inhibition,8 mg/L
same,MIC50,"Histoplasma capsulatum; read-out: MIC 50% inhibition, isolate HC1",0.125 mg/L
same,MIC50,"Histoplasma capsulatum; read-out: MIC 50% inhibition, isolate HC2",≤ 0.03 mg/L
same,MIC50,"Histoplasma capsulatum; read-out: MIC 50% inhibition, isolate HC3",≤ 0.03 mg/L
same,MIC50,"Candida glabrata; read-out: MIC 50% inhibition, isolate 05-62",> 64 mg/L
same,MIC50,"Candida glabrata; read-out: MIC 50% inhibition, isolate 05-761",8 mg/L
same,MIC50,"Candida glabrata; read-out: MIC 50% inhibition, isolate CG3",32 mg/L
same,MIC50,"Blastomyces dermatitidis; read-out: MIC 50% inhibition, isolate Blasto1",≤ 0.03 mg/L
same,MIC50,"Blastomyces dermatitidis; read-out: MIC 50% inhibition, isolate Blasto2",≤ 0.03 mg/L
same,MIC50,"Blastomyces dermatitidis; read-out: MIC 50% inhibition, isolate Blasto3",≤ 0.03 mg/L
same,MIC50,"Coccidioides sp.; read-out: MIC 50% inhibition, isolate Cocci1",16 mg/L
same,MIC50,"Coccidioides sp.; read-out: MIC 50% inhibition, isolate Cocci2",32 mg/L
same,MIC50,"Coccidioides sp.; read-out: MIC 50% inhibition, isolate D117-143",4 mg/L
CC[C@@H]([C@H](C)O)n1ncn(-c2ccc(N3CCN(c4ccc(OC[C@@H]5CO[C@@](Cn6cncn6)(c6ccc(F)cc6F)C5)cc4)CC3)cc2)c1=O [Posaconazole],MIC,P. variotii; read-out: MIC 100% inhibition,≤ 0.03 mg/L
same,MIC,"Saksenaea sp.; read-out: MIC 100% inhibition, isolate Sak1",≤ 0.03 mg/L
same,MIC,"Saksenaea sp.; read-out: MIC 100% inhibition, isolate Sak2",0.06 mg/L
same,MIC,"Saksenaea sp.; read-out: MIC 100% inhibition, isolate Sak3",≤ 0.03 mg/L
same,MIC,"Sporothrix sp.; read-out: MIC 100% inhibition, isolate Sporo1",0.06 mg/L
same,MIC,"Sporothrix sp.; read-out: MIC 100% inhibition, isolate Sporo2",1 mg/L
same,MIC,"Sporothrix sp.; read-out: MIC 100% inhibition, isolate Sporo3",0.06 mg/L
same,MIC,"Rhizopus arrhizus; read-out: MIC 100% inhibition, isolate 99-880",1 mg/L
same,MIC,"Rhizopus arrhizus; read-out: MIC 100% inhibition, isolate 99-892",0.25 mg/L
same,MIC,"Rhizopus arrhizus; read-out: MIC 100% inhibition, isolate RAI",0.125 mg/L
same,MIC,"Apophysomyces sp.; read-out: MIC 100% inhibition, isolate Apo1",0.06 mg/L
same,MIC,"Apophysomyces sp.; read-out: MIC 100% inhibition, isolate Apo2",≤ 0.03 mg/L
same,MIC,"Apophysomyces sp.; read-out: MIC 100% inhibition, isolate Apo3",0.5 mg/L
CN[C@H](CC(C)C)C(=O)N[C@H]1C(=O)N[C@@H](CC(N)=O)C(=O)N[C@H]2C(=O)N[C@H]3C(=O)N[C@H](C(=O)N[C@H](C(=O)O)c4cc(O)cc(O)c4-c4cc3ccc4O)[C@H](O)c3ccc(c(Cl)c3)Oc3cc2cc(c3O[C@@H]2O[C@H](CO)[C@@H](O)[C@H](O)[C@H]2O[C@H]2C[C@](C)(N)[C@H](O)[C@H](C)O2)Oc2ccc(cc2Cl)[C@H]1O [Vancomycin],MIC,"Streptococcus pneumoniae; ATCC49619, isolate ATCC 49619",≤ 0.125 mg/L
same,MIC,Streptococcus pneumoniae; isolate CO314937,≤ 0.125 mg/L
same,MIC,Streptococcus pneumoniae; isolate MD77773,0.25 mg/L
same,MIC,Staphylococcus aureus; Staphylococcus aureus,1 mg/L
same,MIC,"Staphylococcus aureus; Staphylococcus aureus, ATCC29213",1 mg/L
same,MIC,Staphylococcus aureus; isolate 6229,1 mg/L
